Source: patent US4472286A, “Perfluoroalkyl anion/perfluoroalkyl cation ion pair complexes” (Ciba-Geigy Corporation, priority 1983, dated 1984)

What was measured:
[1] = Solubility in water of Rf.Rf complexes and precursor surfactants; type: physicochemical
Experimental: The following Table 1 illustrates how a selected type of an Rf Rf ion-pair complex differs in its properties from the precursor anionic and cationic fluorochemical surfactants. Besides the differences shown in Table 1 (solubility, melting point, surface tension), Rf Rf ion-pair complexes also differ in many other properties from their precursor surfactants.
(§1) The products of Examples 1, 2 and 4 were tested for their respective solubility in distilled water.

[2] = Surface tension of aqueous solutions (ASTM D-1331-56); type: physicochemical; details: for Surface tension, anionic surfactant: Table 5, 0.01%
[3] = Micellar behavior in distilled water; type: physicochemical
Experimental: as §1

[4] = background section; cited from earlier work

3-(1,1,2,2-tetrahydroperfluorooctylthio)-2-hydroxypropyltrimethylammonium 2-methyl-2-(3-[1,1,2,2-tetrahydroperfluorooctylthio]propanesulfonate [Example 1]
solubility in distilled water [1]: 5×10^-3 weight %
surface tension of concentrated solution ([2]; concentrated solution in distilled water): 16.9 dynes/cm
micellar behavior [3]: None

O=S(=O)(O)C(F)(F)C(F)(F)C(F)(F)C(F)(F)C(F)(F)C(F)(F)C(F)(F)C(F)(F)F [FC-95]
Surface tension, anionic surfactant alone ([2]; Table 4, at 0.01% in water): 42.2
Surface tension, anionic surfactant [2]: 42.2

CCN(CC(=O)O)S(=O)(=O)C(F)(F)C(F)(F)C(F)(F)C(F)(F)C(F)(F)C(F)(F)C(F)(F)C(F)(F)F [FC-128]
Surface tension, anionic surfactant alone ([2]; Table 4, at 0.01% in water): 24.7
Surface tension, anionic surfactant [2]: 24.7

C[N+](C)(C)CCCNS(=O)(=O)C(F)(F)C(F)(F)C(F)(F)C(F)(F)C(F)(F)C(F)(F)C(F)(F)C(F)(F)F [FC-134]
Surface tension, cationic surfactant alone ([2]; Table 4, at 0.01% in water): 17.8

decyltrimethylammonium decyl sulfate
surface tension of aqueous solutions (literature / general knowledge) [4]: ≥ 22 dynes/cm
